One series addresses T1, hKv7.1 + minK (Homo sapiens, UniProt P51787).
T1 construct: host or cells: HEK293T
The series is described as follows: Whole-cell patch-clamp on HEK293T cells, IKs. Format: cell-based. As to conditions: for inhibition at 200 µM: HEK-293T. The procedure:
Experiments were performed on HEK293T cell lines with persistent/inducible expression of different human cardiac ion channel isoforms: hNav1.5 and hKv7.1 + minK (Anaxon AG, Bern, Switzerland), hCav1.2 (α1c + β2 + α2δ1) (B’SYS GmbH, Witterswil, Switzerland), and hKv11.1 (hERG) (Cytocentrics Bioscience GmbH, Rostock, Germany). The cell lines were grown in standard conditions (37 °C, 5% CO2, 90% humidity) in DMEM:F12 medium (D8900, Sigma-Aldrich, Burlington, MA, USA) buffered with 15 mM HEPES, containing 3.15 g/L D-glucose and 0.055 g/L sodium pyruvate, supplemented with 1.2 g/L sodium bicarbonate, 10% fetal bovine serum (F2442, Sigma-Aldrich, Burlington, MA, USA), 2 mM L-glutamine (G7513, Sigma-Aldrich, Burlington, MA, USA), 1% penicillin–streptomycin (P4333, Sigma-Aldrich, Burlington, MA, USA), and with specific antibiotics for selection of transfected cells or induction of gene expression according to manufacturers’ instructions. The medium was changed every 2–3 days and the cells were passed weekly upon detachment with trypsin–EDTA solution. All cell culture media and solutions were sterile filtered with 0.22 μm polyvinylidene fluoride filters. Ncyte® vCardiomyocytes (Ncardia, Leiden, The Netherlands) were cultured in 24-well plates precoated with bovine fibronectin, following manufacturer’s instructions. For the experiments, cardiomyocytes were detached as described previously and plated on ϕ 10 mm glass coverslips, like the other cell lines.
Manual whole-cell patch-clamp experiments were performed at room temperature, with equipment as described in previous studies. Pipettes were pulled from Clark borosilicate glass capillaries with inner filament (GC150F-10, Harvard Apparatus, Holliston, MA, USA) and had typical resistances of 2–3 MΩ. Recordings were performed with a WPC-100 resistive feedback amplifier (ESF electronic, Göttingen, Germany) or an Axopatch 200B amplifier (Axon Instruments—Molecular Devices, San Jose, CA, USA) connected to a Digidata 1322A interface driven by the pClamp 8.2 Clampex module (Axon Instruments, part of Molecular Devices, San Jose, CA, USA). […]
For orientation: The patch-clamp technique gives a direct electrical read-out from membranes.

In series [1] the test system is voltage-gated sodium channels in rat hippocampal CA3 neurons. The conditions noted are these: cited from earlier work; for IC50: newborn rat CA3 hippocampal neurons, ref [22].
The conditions of series [2]: rabbit; ref [5] p.10; cited from earlier work.
The conditions of series [3]: cited from earlier work; for healthy volunteers with QT interval shortening greater than 20 ms: study YKP3089C020, ref [9] p. 11.
For series [4] the following is noted: ref https://go.drugbank.com/drugs/DB06119; cited from earlier work.

SMILES strings stand for the structures. Read-outs that look alike come from different tables or passages of the source.

As a reminder, the IC50 is the concentration that gives 50% inhibition. What is called inhibition is the relative decrease from the control value, in per cent. A word on the logP: it is the decadic logarithm of the partition coefficient of the neutral form, usually between octanol and water.

T1 sequence (P51787 whole entry): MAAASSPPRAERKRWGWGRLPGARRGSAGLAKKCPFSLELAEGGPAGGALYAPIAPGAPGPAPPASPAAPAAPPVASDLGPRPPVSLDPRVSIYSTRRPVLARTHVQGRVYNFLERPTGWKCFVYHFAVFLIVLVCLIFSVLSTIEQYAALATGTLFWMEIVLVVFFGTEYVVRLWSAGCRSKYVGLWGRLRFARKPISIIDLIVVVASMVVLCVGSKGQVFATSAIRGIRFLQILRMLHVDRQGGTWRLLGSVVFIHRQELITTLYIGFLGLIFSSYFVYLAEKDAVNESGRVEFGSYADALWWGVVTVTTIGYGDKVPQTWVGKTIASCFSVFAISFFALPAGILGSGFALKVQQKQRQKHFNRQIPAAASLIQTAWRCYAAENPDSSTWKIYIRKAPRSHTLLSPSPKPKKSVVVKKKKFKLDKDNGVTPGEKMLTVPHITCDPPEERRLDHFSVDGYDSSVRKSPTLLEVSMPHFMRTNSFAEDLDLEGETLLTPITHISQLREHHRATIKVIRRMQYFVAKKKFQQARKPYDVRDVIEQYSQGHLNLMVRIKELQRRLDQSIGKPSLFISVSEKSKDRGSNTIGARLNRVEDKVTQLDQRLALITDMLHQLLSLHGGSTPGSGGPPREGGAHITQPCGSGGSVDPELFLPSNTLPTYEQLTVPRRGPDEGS

In the case of `NC(=O)O[C@@H](Cn1ncnn1)c1ccccc1Cl` [cenobamate], the IC50 on hKv7.1 + minK is above 200 µM. For the same compound, the inhibition at 200 µM at hKv7.1 + minK (cenobamate 200 µM, mean (SD), n = 8, not corrected for control rundown 23.66%, read-out: average inhibition of IKs plateau current at +60 mV) amounted to 36.7 ± 13%. Moreover, the inhibition at 200 µM on hKv7.1 + minK (cenobamate 200 µM, read-out: estimated net average IKs inhibition (cenobamate 200 µM − control)) is 13%. The “average inhibition of IKs plateau current at +60 mV” value on hKv7.1 + minK (cenobamate 200 µM, mean (SD), n = 8, not corrected for control rundown 23.66%) was 36.68 ± 13.02%. Besides, the “change in half-inactivation potential” value in series [1] (100 µM cenobamate, ref [22] Nakamura et al., 2019) is recorded as −6 mV. The 50% inhibitory concentration (IC50) in series [1] (read-out: IC50 on late (persistent) INa) is 53.1 µM. In addition, the half-inhibitory concentration (IC50) in series [1] (read-out: estimated IC50 on peak (transient) Na+ current) was above 500 µM. Moreover, the Kd in series [1] (ref [22] Nakamura et al., 2019, read-out: KR (affinity for resting (closed) conformation)) is 798 µM. Moreover, the protein binding in series [2] is recorded as 35.4%. The “healthy volunteers with QT interval shortening greater than 20 ms” value in series [3] (200 mg oral dose, 6–17% with placebo) is on record as 31%. In series [3] (500 mg), the “healthy volunteers with QT interval shortening greater than 20 ms” value is reported as 66%. Also, in series [3] (ref [9] pp. 11–12), the QTc interval shortening is above 20 ms and the “QTc interval under cenobamate (not below)” value is at least 300 ms. In series [4], the lipophilicity (logP) was 1.66, the physiological charge was 0, the “strongest acidic pKa” value is given as 14.28 and the “strongest basic pKa” value is listed as −1.7.
